From paper PMC7352507, “The Genome Analysis of Methylobacterium populi YC-XJ1 with Diverse Xenobiotics Biodegrading Capacity and Degradation Characteristics of Related Hydrolase” (International Journal of Molecular Sciences, 2020)

What was measured:
DEPH1 = test system: T1, DEPH1; assay: residual substrate (HPLC or GC), Lineweaver-Burk; type: biochemical, Methylorubrum populi; settings: 10 mM PBS pH 7.0, 25 °C; 500 µg enzyme; DEP 0.2-2.4 mM
T1 construct: full length, 280 aa, 29,714 Da, no signal peptide; pET-32a(+) BamHI/HindIII, Trx/His/S tags kept (about 48 kDa on SDS-PAGE); E. coli

QPEH2 = test system: T2, QPEH2; assay: HPLC of residual substrate, Lineweaver-Burk; type: biochemical, Methylorubrum populi; settings: 10 mM PBS pH 7.0, 25 °C; 120 µg enzyme; QPE 0.2-2.4 mM
T2 construct: full length, 367 aa, 39,840 Da, no signal peptide; pET-32a(+) BamHI/HindIII, fused tags (His/S stated; about 45 kDa on SDS-PAGE) kept; E. coli

Row | SMILES | Km (DEPH1) [µM] | Km (QPEH2) [µM]
1 | CCOC(=O)c1ccccc1C(=O)OCC [diethyl phthalate] | 1040 ± 270 | –
2 | CCOC(=O)[C@@H](C)Oc1ccc(Oc2cnc3cc(Cl)ccc3n2)cc1 [quizalofop-p-ethyl] | – | 83.9 ± 30.3
